The source of these data is patent publication US9618513B2, “Compositions and methods for detecting and treating colorectal cancer” (The Regents of the University of Michigan, priority 2014, dated 2017).

Assay [1] relates to primary colon cancer cell line SBCA. The experiment in a line: Proliferation of primary colon cancer cell line SBCA. It is filed as cell-based, human. The protocol: FIG. 21A-E A. Dot1L/H3K79me2 inhibitor EZP004777 (10 uM) had no effect on SUZ12 expression but reduce Sox2. B. EZP004777 had no effect on primary colon cancer cell line SBCA. C. EZH2 inhibitor DZNep reduced SBCA cell proliferation. D. SUZ12 knockdown reduced H3K27m3 level. E. Effect of I1-22 on tumor sphere assay was analyzed in shEZH2, shSUZ12 and Dznep treated cells.
Three primary colon cancer cell lines (SB, WR, JR) were established from fresh colon tissues. These primary colon cancer cells and DLD1 (ATCC) were studied. Colon cancer cells were treated with recombinant IL-22 (R&D) for different time points. The EZH2 inhibitor DZNep was added in conventional or sphere culture (see, e.g., Kryczek, I., et al., (2012) International journal of cancer 130, 29-39). Tumor cell sphere formation and gene expression were examined (see, e.g., Kryczek, I., et al., (2012) International journal of cancer 130, 29-39).

Assay [2] relates to DLD-1 colon cancer cells. The experiment in a line: In vivo tumor formation of DLD-1 cells in NSG mice. On the set-up: species or system NOD/Shi-scid/IL-2Rγnull (NSG) mice. An excerpt:
(A), IL-22 is expressed in colon cancer tissues. IL-22 mRNA was detected by real-time PCR in colon cancer tissues and peripheral blood. *P<0.05 compared to blood, 20 colon cancer patients. (B-D), Endogenous IL-22 promotes colon carcinogenesis. Single cells (10^7) isolated from colon cancer tissue were mixed with anti-IL-22 antibody or control mAb, and then subcutaneously injected to NSG mice. Tumor growth (B), incidence (C), and animal survival (D) are shown. (P<0.05 for all, n=5 per group). (E-G) Recombinant IL-22 promotes colon carcinogenesis. DLD-1 colon cancer cells (10^5) were pre-incubated with IL-22 (20 ng/ml) for 1 hour, and then subcutaneously injected to NSG mice. Tumor growth (E), incidence (F), and animal survival (G) are shown. (P<0.05 for all, n=5 per group). (H, I) IL-22 enhances colon cancer sphere formation. DLD-1 colon cancer cells were pre-incubated for 24 hours with IL-22. Sphere assay was performed with 2,000 cells. Representative image of spheres (H) and the mean numbers of spheres (I) are shown. *P<0.05, n=5. (J) IL-22 increases ALDH1 activity in colon cancer cells. Colon cancer cell lines (DLD-1 and HT29) and two primary colon cancer cells (1, 2) were cultured with IL-22 for 24 hours. ALDH activity was determined by FACS based on aldefluor fluorescence. Cells treated with DEAB inhibitor were negative controls. Results are expressed as fold changes of ALDH expression. (P<0.05 for all, n=3 repeats per group). (K-M) IL-22 stimulates core stem cell gene expression in colon cancer cells. DLD-1 colon cancer cells were cultured with IL-22 (20 ng/ml). The mRNA of stem cell core gene was detected by real-time PCR (K) and proteins were detected by western blotting (L, M). (*P<0.05, n=5).
IL-22 treated 10^6 DLD-1 cells were inoculated into NSG mice. Tumor incidence (A) and tumor growth (B) were recorded. n=5 per group, P<0.05.
To confirm the tumorigenic potential of endogenous IL-22, different concentrations of a colorectal adenocarcinoma cancer cell line, DLD-1 cells, were injected into the NSG mice to determine a nontumorigenic concentration. […] However, exogenous IL-22 administration enabled tumor formation with 10^5DLD-1 cells as shown by increased tumor volume (FIG. 1E) and incidence (FIG. 1F) and decreased mouse survival (FIG. 1G). When 10^6 DLD-1 cells were inoculated into mice, IL-22 accelerated tumor development (FIG. 13A) and growth as well (FIG. 13B). Thus, IL-22 may enhance tumorigenesis by altering cancer stem cell properties.
Colon cancer cells (10^2-5×10^6) in 100 μl of buffered saline were subcutaneously injected into dorsal tissues of female NOD/Shi-scid/IL-2Rγnull (NSG) mice (6-8 weeks old, Jackson Lab, Bar Harbor, Me.) (see, e.g., Curiel, T. J. et al. (2004) Nat Med 10, 942-949; Curiel, T. J. et al. (2003) Nat Med 9, 562-567; Kryczek, I. et al. (2012) Int J Cancer 130, 29-39). Tumor size was measured two times weekly using calipers fitted with a Vernier scale. Tumor volume was calculated based on three perpendicular measurements (see, e.g., Curiel, T. J. et al. (2004) Nat Med 10, 942-949; Curiel, T. J. et al. (2003) Nat Med 9, 562-567). Tumor incidence was monitored.

Assay [3] concerns EZH2, SUZ12, EED, CBX8. The assay is described as follows: PcG / PRC2 component expression (real-time PCR, western blot). It is filed as cell-based, human. As to the method: A, C. Cell proliferation was analyzed using H^3 Thymidine Incorporation. B. The level of total H3K79m2 and H3K27me3 was measured by Western Blot. D. PcG proteins of EZH2, EED, SUZ12 was increased with IL-22(20 ng/ml) treatment. E. EZH2, SUZ12 and EED was detected by Western Blot after IL-22 treated for 24 h or 48 h. F. EZH2 inhibitor DZNep reduced cell proliferation. G.H. The efficiency of EZH2 and SUZ12 knock down was tested by Western Blot. I.J. Cell proliferation was analyzed using H^3 Thymidine Incorporation after knock down of EZH2 and SUZ12. K.L. Relative expression of cyclin-dependent kinase inhibitors (p16 and p18) in shEZH2, shSUZ12 and Dznep treated cells after IL-22 treatment. M. The level of H3K27me3 in the promoter of p16 and p18 was analyzed by ChIP assay.
A. The protein level of phosphorylated STAT3, STAT1 and STATS were activated by IL-22. B. The effect of STAT3 knock down. C. The effect of IL-22 on cell proliferation was analyzed using H^3 Thymidine Incorporation in Stat3 knock down cells. D. Knock down of STAT3 reduced the expression of EZH2 and SUZ12. E. Based on the ENCODE STAT3-ChIP-Seq data base, STAT3 occupancy on the promoter areas of SUZ12 and EED is shown. F. SUZ12/EED DNA was detected by ChIP assay using an antibody against STAT3, c-fos was used as a positive control.
The mRNAs were quantified by real-time RT-PCR. SYBR Green Master Mix was used to detect fluorescence. Relative expression was calculated according to the Ct value with normalization to GAPDH.
Western Blot assay was performed with specific antibodies against human Stat3, phosphorylate Stat3 (Cell Signaling), Sox2, SUZ12(Santa Cruz biotechnology), EZH2 (Abcam), H3K27me3 and H3K79me2 (Millipore).
(In qPCR the cycle at which signal appears reflects the starting amount.)

The mark [4] stands for this setting: 10^5 DLD-1 cells pre-incubated with IL-22 (20 ng/ml) 1 hour.

For `CC(C)N(CCCNC(=O)Nc1ccc(C(C)(C)C)cc1)C[C@H]1O[C@@H](n2ccc3c(N)ncnc32)[C@H](O)[C@@H]1O` [EPZ004777], the SBCA cell proliferation entry in assay [1] is recorded as “no effect”.

Turning to “IL-22: recombinant IL-22 (R&D systems), cytokine interleukin-22”, in assay [2] (setting [4]), the mouse survival result was “decreased”, the tumor incidence result is “increased” and the tumor volume result is recorded as “increased”. For the same compound, in assay [2] (10^6 IL-22 treated DLD-1 cells), the “tumor development (incidence)” value is listed as “accelerated” and the tumor growth result is given as “accelerated”. Moreover, the “protein level of EZH2 and SUZ12” value in assay [3] (FIG. 19D) is reported as “up regulate”. Further, in assay [3] (IL-22 20 ng/ml), the CBX8 expression result was “increased”, the “mRNA expression level of EED” value is given as “increased to a lesser extent” and the “mRNA expression level of SUZ12” value is recorded as “significantly increase”. Also, in assay [3] (IL-22 24 h or 48 h), the “EED and SUZ12 expression (western blotting)” value is “increased to a lesser extent”; the “EZH2 expression (western blotting)” value is on record as “increased”.
